Source: PubChem BioAssay AID1745844 (Carcinogenic Potency Database (CPDB), 2022)
Activity calls are given as the source filed them. No rule for the calls is given here.

Tested on: rodent lifetime carcinogenesis bioassay, tumor incidence TD50
Experiment: carcinogenic potency in animals, long-term in vivo studies, CPDB compilation (AID 1745844)

## CCCN(N)C=O
mouse, strain Swiss albino, females, in drinking water, site: gall bladder, lesion: adenoma, dosed 75 weeks, study length 79 weeks
  TD50: 497 mg/kg/day
mouse, strain Swiss albino, females, in drinking water, site: gall bladder, lesion: several types, types named in the paper, dosed 75 weeks, study length 79 weeks
  TD50: 444 mg/kg/day
mouse, strain Swiss albino, females, in drinking water, site: liver, lesion: several types, types named in the paper, dosed 75 weeks, study length 79 weeks
  TD50: 215 mg/kg/day
mouse, strain Swiss albino, females, in drinking water, site: lung, lesion: several types, types named in the paper, dosed 75 weeks, study length 79 weeks
  TD50: 8.74 mg/kg/day
mouse, strain Swiss albino, males, in drinking water, site: lung, lesion: several types, types named in the paper, dosed 51 weeks, study length 61 weeks
  TD50: 8.84 mg/kg/day
mouse, strain Swiss albino, males, in drinking water, site: preputial gland, lesion: several types, types named in the paper, dosed 51 weeks, study length 61 weeks
  TD50: 60.4 mg/kg/day
mouse, strain Swiss albino, males, in drinking water, site: preputial gland, lesion: squamous-cell carcinoma, dosed 51 weeks, study length 61 weeks
  TD50: 75.7 mg/kg/day

## ClC#CCl
mouse, strain NMRI, females, inhaled, site: Harderian gland, lesion: cystadenoma, dosed 52 weeks, study length 98 weeks
  TD50: 3.02 mg/kg/day
mouse, strain NMRI, females, inhaled, site: Harderian gland, lesion: cystadenoma, dosed 78 weeks, study length 119 weeks
  TD50: 0.55 mg/kg/day
mouse, strain NMRI, females, inhaled, site: Harderian gland, lesion: cystadenoma, dosed 78 weeks, study length 129 weeks
  TD50: 0.499 mg/kg/day
mouse, strain NMRI, females, inhaled, site: kidney, lesion: cystadenoma, dosed 52 weeks, study length 98 weeks
  TD50: 1.03 mg/kg/day
mouse, strain NMRI, females, inhaled, site: kidney, lesion: cystadenoma, dosed 78 weeks, study length 119 weeks
  TD50: 1.08 mg/kg/day
mouse, strain NMRI, females, inhaled, site: kidney, lesion: cystadenoma, dosed 78 weeks, study length 129 weeks
  TD50: 7.8 mg/kg/day
mouse, strain NMRI, females, inhaled, site: lung, lesion: adenoma, dosed 78 weeks, study length 119 weeks
  TD50: 2.73 mg/kg/day
mouse, strain NMRI, males, inhaled, site: Harderian gland, lesion: cystadenoma, dosed 52 weeks, study length 92 weeks
  carcinogen call: positive
mouse, strain NMRI, males, inhaled, site: Harderian gland, lesion: cystadenoma, dosed 78 weeks, study length 118 weeks
  TD50: 0.687 mg/kg/day
mouse, strain NMRI, males, inhaled, site: Harderian gland, lesion: cystadenoma, dosed 78 weeks, study length 127 weeks
  TD50: 1.01 mg/kg/day
mouse, strain NMRI, males, inhaled, site: kidney, lesion: cystadenocarcinoma, dosed 52 weeks, study length 92 weeks
  TD50: 3.89 mg/kg/day
mouse, strain NMRI, males, inhaled, site: kidney, lesion: cystadenocarcinoma, dosed 78 weeks, study length 118 weeks
  TD50: 4.52 mg/kg/day
mouse, strain NMRI, males, inhaled, site: kidney, lesion: cystadenocarcinoma, dosed 78 weeks, study length 127 weeks
  TD50: 0.501 mg/kg/day
mouse, strain NMRI, males, inhaled, site: kidney, lesion: cystadenoma, dosed 52 weeks, study length 92 weeks
  TD50: 0.486 mg/kg/day
mouse, strain NMRI, males, inhaled, site: kidney, lesion: cystadenoma, dosed 78 weeks, study length 118 weeks
  TD50: 0.769 mg/kg/day
mouse, strain NMRI, males, inhaled, site: kidney, lesion: cystadenoma, dosed 78 weeks, study length 127 weeks
  TD50: 0.466 mg/kg/day
rat, strain Wistar, females, inhaled, site: all sites, lesion: malignant lymphoma, dosed 78 weeks, study length 150 weeks
  TD50: 3.86 mg/kg/day
rat, strain Wistar, females, inhaled, site: kidney, lesion: cystadenoma, dosed 78 weeks, study length 150 weeks
  TD50: 11.5 mg/kg/day
rat, strain Wistar, females, inhaled, site: liver, lesion: cholangioma, dosed 78 weeks, study length 150 weeks
  TD50: 3.86 mg/kg/day
rat, strain Wistar, females, inhaled, site: liver, lesion: hepatocellular adenoma, dosed 78 weeks, study length 150 weeks
  TD50: 17.5 mg/kg/day
rat, strain Wistar, males, inhaled, site: kidney, lesion: cystadenocarcinoma, dosed 78 weeks, study length 157 weeks
  TD50: 26.2 mg/kg/day
rat, strain Wistar, males, inhaled, site: kidney, lesion: cystadenoma, dosed 78 weeks, study length 157 weeks
  TD50: 3.34 mg/kg/day
rat, strain Wistar, males, inhaled, site: liver, lesion: cholangioma, dosed 78 weeks, study length 157 weeks
  TD50: 3.97 mg/kg/day
rat, strain Wistar, males, inhaled, site: liver, lesion: hepatocellular adenoma, dosed 78 weeks, study length 157 weeks
  TD50: 12.9 mg/kg/day

## C[C@H]1CCCC(=O)CCC/C=C/c2cc(O)cc(O)c2C(=O)O1
mouse, strain B6C3F1, females, in feed, site: any site (literature study), lesion: several types, types named in the paper, dosed 104 weeks, study length 105 weeks
  TD50: 17.9 mg/kg/day
mouse, strain B6C3F1, females, in feed, site: liver + pituitary gland, lesion: hepatocellular adenoma + hepatocellular carcinoma + adenoma, NOS + carcinoma, dosed 104 weeks, study length 105 weeks
  TD50: 22 mg/kg/day
mouse, strain B6C3F1, females, in feed, site: liver, lesion: hepatocellular adenoma + hepatocellular carcinoma + neoplastic nodule, dosed 104 weeks, study length 105 weeks
  TD50: 38.8 mg/kg/day
mouse, strain B6C3F1, females, in feed, site: liver, lesion: hepatocellular adenoma + hepatocellular carcinoma, dosed 104 weeks, study length 105 weeks
  TD50: 38.8 mg/kg/day
mouse, strain B6C3F1, females, in feed, site: liver, lesion: hepatocellular adenoma, dosed 104 weeks, study length 105 weeks
  TD50: 50.1 mg/kg/day
mouse, strain B6C3F1, females, in feed, site: pituitary gland, lesion: adenoma, NOS + carcinoma, dosed 104 weeks, study length 105 weeks
  TD50: 32.3 mg/kg/day
mouse, strain B6C3F1, females, in feed, site: pituitary gland, lesion: adenoma, NOS, dosed 104 weeks, study length 105 weeks
  TD50: 37.4 mg/kg/day
mouse, strain B6C3F1, males, in feed, site: pituitary gland, lesion: adenoma + carcinoma, dosed 104 weeks, study length 105 weeks
  TD50: 49.1 mg/kg/day
mouse, strain B6C3F1, males, in feed, site: pituitary gland, lesion: adenoma, dosed 104 weeks, study length 105 weeks
  TD50: 53.3 mg/kg/day
rat, strain Fischer 344, females, in feed, site: any site (literature study), lesion: several types, types named in the paper, dosed 104 weeks, study length 104 weeks
  TD50: 80.9 mg/kg/day (inactive)
rat, strain Fischer 344, females, in feed, site: liver, lesion: hepatocellular adenoma + hepatocellular carcinoma + neoplastic nodule, dosed 104 weeks, study length 104 weeks
  TD50: 33.5 mg/kg/day
rat, strain Fischer 344, males, in feed, site: any site (literature study), lesion: several types, types named in the paper, dosed 104 weeks, study length 104 weeks
  TD50: 16.2 mg/kg/day (inactive)
rat, strain Fischer 344, males, in feed, site: liver, lesion: hepatocellular adenoma + hepatocellular carcinoma + neoplastic nodule, dosed 104 weeks, study length 104 weeks
  TD50: 950 mg/kg/day

## NC(=O)N(CCF)N=O
rat, strain Fischer 344, males, by gavage, site: forestomach, lesion: one or several types, types not named, dosed 40 weeks, study length 104 weeks
  TD50: 0.125 mg/kg/day
rat, strain Fischer 344, males, by gavage, site: lung, lesion: several types, types named in the paper, dosed 40 weeks, study length 104 weeks
  TD50: 0.279 mg/kg/day

## NC1CCCCC1
mouse, strain ASH-CS1, females, in feed, site: any site (literature study), lesion: several types, types named in the paper, dosed 80 weeks, study length 84 weeks
  carcinogen call: negative (inactive)
mouse, strain ASH-CS1, females, in feed, site: liver, lesion: nodular hyperplasia, dosed 80 weeks, study length 84 weeks
  carcinogen call: negative (inactive)
mouse, strain ASH-CS1, females, in feed, site: lung, lesion: adenoma, dosed 80 weeks, study length 84 weeks
  carcinogen call: negative (inactive)
mouse, strain ASH-CS1, males, in feed, site: any site (literature study), lesion: several types, types named in the paper, dosed 80 weeks, study length 84 weeks
  carcinogen call: negative (inactive)
mouse, strain ASH-CS1, males, in feed, site: liver, lesion: nodular hyperplasia, dosed 80 weeks, study length 84 weeks
  TD50: 231 mg/kg/day (inactive)
mouse, strain ASH-CS1, males, in feed, site: lung, lesion: adenocarcinoma, dosed 80 weeks, study length 84 weeks
  carcinogen call: negative (inactive)
mouse, strain ASH-CS1, males, in feed, site: lung, lesion: adenoma, dosed 80 weeks, study length 84 weeks
  carcinogen call: negative (inactive)
mouse, strain Swiss, females, in feed, site: urinary bladder, lesion: anaplastic carcinoma, dosed 91 weeks, study length 91 weeks
  carcinogen call: negative (inactive)
mouse, strain Swiss, males, in feed, site: urinary bladder, lesion: one or several types, types not named, dosed 91 weeks, study length 91 weeks
  carcinogen call: negative (inactive)
rat, strain Charles River albino, males, in feed, site: urinary bladder, lesion: transitional-cell carcinoma, dosed 104 weeks, study length 104 weeks
  TD50: 280 mg/kg/day
rat, strain FDRL, both sexes, in feed, site: any site (literature study), lesion: several types, types named in the paper, dosed 104 weeks, study length 104 weeks
  carcinogen call: negative (inactive)
rat, strain Sprague-Dawley, both sexes, in feed, site: any site (literature study), lesion: malignant tumor, dosed 130 weeks, study length 130 weeks
  carcinogen call: negative (inactive)
rat, strain Sprague-Dawley, both sexes, in feed, site: liver, lesion: liver-cell adenoma, dosed 130 weeks, study length 130 weeks
  TD50: 14500 mg/kg/day (inactive)
rat, strain Sprague-Dawley, both sexes, in feed, site: urinary bladder, lesion: one or several types, types not named, dosed 130 weeks, study length 130 weeks
  carcinogen call: negative (inactive)
rat, strain Wistar, females, in feed, site: liver, lesion: hemangioma, dosed 104 weeks, study length 104 weeks
  TD50: 1330 mg/kg/day (inactive)
rat, strain Wistar, males, in feed, site: liver, lesion: hemangioma, dosed 104 weeks, study length 104 weeks
  carcinogen call: negative (inactive)
rat, strain Wistar, males, in feed, site: liver, lesion: nodular hyperplasia, dosed 104 weeks, study length 104 weeks
  TD50: 47000 mg/kg/day (inactive)

## CC#N
mouse, strain B6C3F1, females, inhaled, site: any site (literature study), lesion: several types, types named in the paper, dosed 103 weeks, study length 105 weeks
  carcinogen call: negative (inactive)
mouse, strain B6C3F1, males, inhaled, site: any site (literature study), lesion: several types, types named in the paper, dosed 103 weeks, study length 104 weeks
  carcinogen call: negative (inactive)
mouse, strain B6C3F1, males, inhaled, site: liver, lesion: hepatocellular adenoma + hepatoblastoma + hepatocellular carcinoma, dosed 103 weeks, study length 104 weeks
  TD50: 90.4 mg/kg/day
mouse, strain B6C3F1, males, inhaled, site: lung, lesion: alveolar/bronchiolar adenoma + alveolar/bronchiolar carcinoma, dosed 103 weeks, study length 104 weeks
  TD50: 318 mg/kg/day
rat, strain Fischer 344, females, inhaled, site: mammary gland, lesion: carcinoma + fibroadenoma, dosed 103 weeks, study length 104 weeks
  TD50: 11.5 mg/kg/day (inactive)
rat, strain Fischer 344, males, inhaled, site: adrenal medulla, lesion: pheochromocytoma benign, bilateral + pheochromocytoma, benign, dosed 103 weeks, study length 104 weeks
  TD50: 16.9 mg/kg/day
rat, strain Fischer 344, males, inhaled, site: adrenal medulla, lesion: pheochromocytoma benign, bilateral + pheochromocytoma, malignant + pheochromocytoma, benign, dosed 103 weeks, study length 104 weeks
  TD50: 14.8 mg/kg/day
rat, strain Fischer 344, males, inhaled, site: liver, lesion: hepatocellular adenoma + hepatoblastoma + hepatocellular carcinoma, dosed 103 weeks, study length 104 weeks
  TD50: 168 mg/kg/day
rat, strain Fischer 344, males, inhaled, site: liver, lesion: hepatocellular adenoma + hepatocellular carcinoma, dosed 103 weeks, study length 104 weeks
  TD50: 168 mg/kg/day
rat, strain Fischer 344, males, inhaled, site: liver, lesion: hepatocellular adenoma, dosed 103 weeks, study length 104 weeks
  TD50: 156 mg/kg/day
rat, strain Fischer 344, males, inhaled, site: liver, lesion: hepatocellular carcinoma, dosed 103 weeks, study length 104 weeks
  TD50: 398 mg/kg/day
rat, strain Fischer 344, males, inhaled, site: skin, lesion: basal-cell adenoma + keratoacanthoma + trichoepithelioma, dosed 103 weeks, study length 104 weeks
  TD50: 81.6 mg/kg/day
rat, strain Fischer 344, males, inhaled, site: skin, lesion: keratoacanthoma, dosed 103 weeks, study length 104 weeks
  TD50: 127 mg/kg/day

## C=COC(N)=O
mouse, strain C57BL/10J, females, i.p., site: liver, lesion: hemangioma, dosed 35 weeks, study length 59 weeks
  TD50: 0.147 mg/kg/day
mouse, strain C57BL/10J, females, i.p., site: liver, lesion: hemangiosarcoma, dosed 35 weeks, study length 59 weeks
  TD50: 0.138 mg/kg/day
mouse, strain C57BL/10J, females, i.p., site: liver, lesion: hepatocellular adenoma, dosed 35 weeks, study length 59 weeks
  TD50: 4.99 mg/kg/day
mouse, strain C57BL/10J, females, i.p., site: liver, lesion: hepatocellular carcinoma, dosed 35 weeks, study length 59 weeks
  TD50: 0.503 mg/kg/day
mouse, strain C57BL/10J, males, i.p., site: liver, lesion: hemangioma, dosed 35 weeks, study length 59 weeks
  TD50: 0.112 mg/kg/day
mouse, strain C57BL/10J, males, i.p., site: liver, lesion: hemangiosarcoma, dosed 35 weeks, study length 59 weeks
  TD50: 0.118 mg/kg/day
mouse, strain C57BL/10J, males, i.p., site: liver, lesion: hepatocellular adenoma, dosed 35 weeks, study length 59 weeks
  TD50: 2.69 mg/kg/day
mouse, strain C57BL/10J, males, i.p., site: liver, lesion: hepatocellular carcinoma, dosed 35 weeks, study length 59 weeks
  TD50: 0.629 mg/kg/day
